Where a name gives a salt, the structure may show the parent alone.
Each compound was assayed on CD4+ CCR4+ T cells (assay: Chemokine stimulated increases in cellular F-actin content). Conditions: Homo sapiens, T-cell, 0.5 h; PBMC from normal volunteers; antagonist 30 min at 37° C. before agonist for 15 sec; F-actin content by flow cytometry; read-out: pA2 (converted).
Type: cell-based
Description: Chemokine Stimulated Increases in Cellular F-Actin Content
Blood was taken from normal volunteers who had taken no medication within the previous ten days and mixed with 1/9 of the volume of 3.8% tri-sodium citrate solution. Chemokine-induced increases in the F-actin content of CD4+ CCR4+ T cells were measured by a modification of the method of Pilette et al. (Eur. Respir. J; 23: 876-884, 2004). Peripheral blood mononuclear cells (PBMC) were isolated by dextran sedimentation followed by Percoll density gradient centrifugation. The PBMCs were incubated with FITC-conjugated anti-human CD4 and PE-conjugated anti-CCR4 antibodies or appropriate isotype controls for 15 min. The cell suspensions were then centrifuged at 400 g for 10 min and the pellets resuspended in assay buffer (phenol red-free RPMI 1640 medium containing 10 mM HEPES and 0.1% bovine serum albumin) at 10^7/mL. The resulting cell suspension was incubated with antagonist or vehicle (0.1% DMSO) for 30 min at 37° C. before stimulation with the agonist for 15 sec. The assay was terminated by addition of 3% formaldehyde. The fixed cells were washed twice with PBS (centrifuging at 1000 g for 5 min to recover the cells) and incubated at room temperature with Alexa fluor-647 phalloidin (0.075 U/mL) in the presence of lyso-phosphatidylcholine (93.75 μg/ml) for 20 min to stain F-actin. The cells were washed once more with PBS and the relative F-actin content of the cells was measured flow cytometrically. The mean fluorescence intensity of 1000 CD4^+ CCR4^+ cells per sample was determined and expressed as a fraction of the mean intensity of the CD4^+ CCR4^− cells in that sample.

Structure (SMILES) | Kb [µM]
COc1cccc2c1c(NS(=O)(=O)c1ccc(Cl)s1)nn2Cc1cccc(CNC(=O)[C@@H]2CCCN2C)c1 [Example 39, N-[(3-{[3-{[(5-Chloro-2-thienyl)sulfonyl]amino}-4-(methyloxy)-1H-indazol-1-yl]methyl}phenyl)methyl]-methyl-L-prolinamide trifluoroacetate] | ≤ 0.126
COc1cccc2c1c(NS(=O)(=O)c1ccc(Cl)s1)nn2Cc1cccc(CNC(=O)[C@H]2CCCN2C)c1 [Example 40, N-[(3-{[3-{[(5-Chloro-2-thienyl)sulfonyl]amino}-4-(methyloxy)-1H-indazol-1-yl]methyl}phenyl)methyl]-1-methyl-D-prolinamide trifluoroacetate] | ≤ 0.126
COc1cccc2c1c(NS(=O)(=O)c1ccc(Cl)s1)nn2Cc1cccc(CNC(=O)c2ccoc2)c1 [Example 41, N-[(3-{[3-{[(5-Chloro-2-thienyl)sulfonyl]amino}-4-(methyloxy)-1H-indazol-1-yl]methyl}phenyl)methyl]-3-furancarboxamide] | ≤ 0.126
COc1cccc2c1c(NS(=O)(=O)c1ccc(Cl)s1)nn2Cc1cccc(CNC(=O)C2CCCCN2C)c1 (stereo not shown) [Example 42, N-[(3-{[3-{[(5-chloro-2-thienyl)sulfonyl]amino}-4-(methyloxy)-1H-indazol-1-yl]methyl}phenyl)methyl]-1-methyl-2-piperidinecarboxamide trifluoroacetate] | ≤ 0.126
COc1cccc2c1c(NS(=O)(=O)c1ccc(Cl)s1)nn2Cc1cccc(CNC(=O)[C@H](N)CC(C)C)c1 [Example 45, N^1-[(3-{[3-{[(5-Chloro-2-thienyl)sulfonyl]amino}-4-(methyloxy)-1H-indazol-1-yl]methyl}phenyl)methyl]-D-leucinamide] | ≤ 0.126
CC[C@H](C)[C@@H](N)C(=O)NCc1cccc(Cn2nc(NS(=O)(=O)c3ccc(Cl)s3)c3c(OC)cccc32)c1 [Example 46, N^1-[(3-{[3-{[(5-Chloro-2-thienyl)sulfonyl]amino}-4-(methyloxy)-1H-indazol-1-yl]methyl}phenyl)methyl]-D-alloisoleucinamide] | ≤ 0.126
COc1cccc2c1c(NS(=O)(=O)c1ccc(Cl)s1)nn2Cc1cccc(CNC(=O)[C@@H](N)Cc2ccccc2)c1 [Example 47, N-[(3-{[3-{[(5-Chloro-2-thienyl)sulfonyl]amino}-4-(methyloxy)-1H-indazol-1-yl]methyl}phenyl)methyl]-L-phenylalaninamide] | ≤ 0.126
COc1cccc2c1c(NS(=O)(=O)c1ccc(Cl)s1)nn2Cc1cccc(CNC(=O)[C@@H](N)CCCCN)c1 [Example 49, N^1-[(3-{[3-{[(5-Chloro-2-thienyl)sulfonyl]amino}-4-(methyloxy)-1H-indazol-1-yl]methyl}phenyl)methyl]-L-lysinamide] | ≤ 0.126
COc1cccc2c1c(NS(=O)(=O)c1ccc(Cl)s1)nn2Cc1cccc(CNC(=O)[C@H]2CCN2)c1 [Example 50, (2R)—N-[(3-{[3-{[(5-Chloro-2-thienyl)sulfonyl]amino}-4-(methyloxy)-1H-indazol-1-yl]methyl}phenyl)methyl]-2-azetidinecarboxamide trifluoroacetate] | ≤ 0.126
COc1ccc(Cn2nc(NS(=O)(=O)c3ccc(Cl)s3)c3c(OC)cccc32)cc1OC [Example 53, N-[1-{[3,4-Bis(methyloxy)phenyl]methyl}-4-(methyloxy)-1H-indazol-3-yl]-5-chloro-2-thiophenesulfonamide] | ≤ 0.126
COC[C@H](N)C(=O)NCc1cccc(Cn2nc(NS(=O)(=O)c3ccc(Cl)s3)c3c(OC)cccc32)c1 [Example 54, N^1-[(3-{[3-{[(5-Chloro-2-thienyl)sulfonyl]amino}-4-(methyloxy)-1H-indazol-1-yl]methyl}phenyl)methyl]-O-methylserinamide trifluoroacetate] | ≤ 0.126
CNC(C)(C)C(=O)NCc1cccc(Cn2nc(NS(=O)(=O)c3ccc(Cl)s3)c3c(OC)cccc32)c1 [Example 56, N1-[(3-{[3-{[(5-Chloro-2-thienyl)sulfonyl]amino}-4-(methyloxy)-1H-indazol-1-yl]methyl}phenyl)methyl]-N2,2-dimethylalaninamide formate] | ≤ 0.126
COc1cccc2c1c(NS(=O)(=O)c1ccc(Cl)s1)nn2Cc1cccc(CNS(C)(=O)=O)c1 [Example 58, 5-Chloro-N-{4-(methyloxy)-1-[(3-{[(methylsulfonyl)amino]methyl}phenyl)methyl]-1H-indazol-3-yl}-2-thiophenesulfonamide] | ≤ 0.126
COc1cccc2c1c(NS(=O)(=O)c1ccc(Cl)s1)nn2Cc1cccc(CNC(N)=O)c1 [Example 59, N-[1-[(3-{[(Aminocarbonyl)amino]methyl}phenyl)methyl]-4-(methyloxy)-1H-indazol-3-yl]-5-chloro-2-thiophenesulfonamide] | ≤ 0.126
COc1cccc2c1c(NS(=O)(=O)c1ccc(Cl)s1)nn2Cc1cccc(CNC(=O)NC(C)(C)C)c1 [Example 60, 5-Chloro-N-[1-({3-[({[(1,1-dimethylethyl)amino]carbonyl}amino)methyl]phenyl}methyl)-4-(methyloxy)-1H-indazol-3-yl]-2-thiophenesulfonamide] | ≤ 0.126
COc1cccc2c1c(NS(=O)(=O)c1ccc(Cl)s1)nn2Cc1cccc(CNC(=O)NC(C)C)c1 [Example 61, 5-Chloro-N-[1-({3-[({[(1-methylethyl)amino]carbonyl}amino)methyl]phenyl}methyl)-4-(methyloxy)-1H-indazol-3-yl]-2-thiophenesulfonamide] | ≤ 0.126
COc1cccc2c1c(NS(=O)(=O)c1ccc(Cl)s1)nn2Cc1ccc(S(N)(=O)=O)cc1 [Example 62, N-[1-{[4-(Aminosulfonyl)phenyl]methyl}-4-(methyloxy)-1H-indazol-3-yl]-5-chloro-2-thiophenesulfonamide] | ≤ 0.126
CNC(=O)Cc1cccc(Cn2nc(NS(=O)(=O)c3ccc(Cl)s3)c3c(OC)cccc32)c1 [Example 63, 2-(3-{[3-{[(5-Chloro-2-thienyl)sulfonyl]amino}-4-(methyloxy)-1H-indazol-1-yl]methyl}phenyl)-N-methylacetamide] | ≤ 0.126
COc1cccc2c1c(NS(=O)(=O)c1ccc(Cl)s1)nn2Cc1cccc(C(N)=O)c1 [Example 64, 3-{[3-{[(5-Chloro-2-thienyl)sulfonyl]amino}-4-(methyloxy)-1H-indazol-1-yl]methyl}benzamide] | ≤ 0.126
COc1cccc2c1c(NS(=O)(=O)c1ccc(Cl)s1)nn2Cc1cccc(C(=O)NCCN(C)C)c1 [Example 65, 3-{[3-{[(5-Chloro-2-thienyl)sulfonyl]amino}-4-(methyloxy)-1H-indazol-1-yl]methyl}-N-[2-(dimethylamino)ethyl]benzamide] | ≤ 0.126
COc1cccc2c1c(NS(=O)(=O)c1ccc(C)s1)nn2Cc1cccc(C(N)=O)c1 [Example 66, 3-[(4-(Methyloxy)-3-{[(5-methyl-2-thienyl)sulfonyl]amino}-1H-indazol-1-yl)methyl]benzamide] | ≤ 0.126
COc1cccc2c1c(NS(=O)(=O)c1ccc(Br)s1)nn2Cc1cccc(C(N)=O)c1 [Example 67, 3-{[3-{[(5-Bromo-2-thienyl)sulfonyl]amino}-4-(methyloxy)-1H-indazol-1-yl]methyl}benzamide] | ≤ 0.126
COc1ccc(F)c2c1c(NS(=O)(=O)c1ccc(Cl)s1)nn2Cc1cccc(C(N)=O)c1 [Example 68, 3-{[3-{[(5-Chloro-2-thienyl)sulfonyl]amino}-7-fluoro-4-(methyloxy)-1H-indazol-1-yl]methyl}benzamide] | ≤ 0.126
NC(=O)c1cccc(Cn2nc(NS(=O)(=O)c3ccc(Cl)s3)c3c(O)ccc(F)c32)c1 [Example 69, 3-[(3-{[(5-Chloro-2-thienyl)sulfonyl]amino}-7-fluoro-4-hydroxy-1H-indazol-1-yl)methyl]benzamide] | ≤ 0.126
COc1cccc2c1c(NS(=O)(=O)c1ccc(Cl)s1)nn2Cc1cccc(OCCN(C)C)c1 [Example 74, 5-Chloro-N-[1-[(3-{[2-(dimethylamino)ethyl]oxy}phenyl)methyl]-4-(methyloxy)-1H-indazol-3-yl]-2-thiophenesulfonamide] | ≤ 0.126
COc1cccc2c1c(NS(=O)(=O)c1ccc(Cl)s1)nn2Cc1ccc(OCCN(C)C)cc1 [Example 75, 5-Chloro-N-[1-[(4-{[2-(dimethylamino)ethyl]oxy}phenyl)methyl]-4-(methyloxy)-1H-indazol-3-yl]-2-thiophenesulfonamide] | ≤ 0.126
COc1cc(Cn2nc(NS(=O)(=O)c3ccc(Cl)s3)c3c(OC)cccc32)ccc1OCCN(C)C [Example 76, 5-Chloro-N-[1-{[4-{[2-(dimethylamino)ethyl]oxy}-3-(methyloxy)phenyl]methyl}-4-(methyloxy)-1H-indazol-3-yl]-2-thiophenesulfonamide] | ≤ 0.126
COc1cccc2c1c(NS(=O)(=O)c1ccc(Cl)s1)nn2Cc1cccc(S(N)(=O)=O)c1 [Example 77, N-[1-{[3-(aminosulfonyl)phenyl]methyl}-4-(methyloxy)-1H-indazol-3-yl]-5-chloro-2-thiophenesulfonamide] | ≤ 0.126

From patent publication US8304446B2, “Compounds” (Glaxo Group Limited, priority 2009, dated 2012)
